We go through 5 molecules from patent publication US6387431B1, “Dicarboalkoxy dioxolanes as flavoring agent releasing compounds” (Givaudan SA, priority 2000, dated 2002).

Series [1] in a line: Stability (decomposition) in a still lemon beverage, hexane extraction and GC. It counts as physicochemical. Particulars: for half life t½: 100 ppm, over 5 days, first order kinetic assumed. The procedure: The stability of compound 1 of Example 1 was tested in a still lemon beverage prepared by 1+5 dilution of lemon/lime-lemon beverage concentrate (210 g) with water ([…]). Formula of the lemon/lime-lemon beverage concentrate used: [table] Three 100 ml solutions containing each 100 ppm of the compound 1 were prepared and the decomposition of 1 was determined over a period of 5 days by extraction of 5 ml test solutions samples with hexane, spiked with 100 ppm of ethyl myristate. The extracts were analyzed by GC (Hewlett Packard 6890; column: DB-5, 30 m, 0.32 mm i.d.) and for each data point a mean value based on three measurements was calculated.

The conditions of series [2]: aqueous solutions and acidic aqueous alcoholic and non-alcoholic beverages; cited from earlier work.

In the case of `CC(C)=CCCC(C)=CC1O[C@@H](C(=O)OC(C)C)[C@H](C(=O)OC(C)C)O1` (mixture of isomers) [compound 1, (E/Z)-(4R,5R)-2-(2,6-Dimethyl-hepta-1,5-dienyl)-[1,3]dioxolane-4,5-dicarboxylic acid diisopropylester], the “half life t½” value in series [1] was 96 h.

Take `CCOC(=O)[C@@H]1OC(C=C(C)CCC=C(C)C)O[C@H]1C(=O)OCC` (mixture of isomers) [compound 3, (E/Z)-(4R,5R)-2-(2,6-Dimethyl-hepta-1,5-dienyl)-[1,3]dioxolane-4,5-dicarboxylic acid diethylester]: in series [1] (determined as in Example 6), the half life was found to be 21 h.

As to `CCCOC(=O)[C@@H]1OC(C=C(C)CCC=C(C)C)O[C@H]1C(=O)OCCC` (mixture of isomers) [compound 5, (E/Z)-(4R,5R)-2-(2,6-Dimethyl-hepta-1,5-dienyl)-[1,3]dioxolane-4,5-dicarboxylic acid dipropylester], the “half life t½” value in series [1] is 264 h.

As for `COC(C=C(C)CCC=C(C)C)OC` [citral dimethyl acetal], in series [2], the hydrolysis result is reported as “rapidly hydrolized”. Turning to `CC(C)=CCC/C(C)=C/C1OCC(C)O1` (centres unmarked) [citral propylene glycol acetal], the hydrolysis entry in series [2] is listed as “rapidly hydrolized”.
